Measured values published in article PMC9813676 (Current Research in Food Science, 2022).

Assays:
[1] = target: T1, porcine pancreatic lipase (Sus scrofa, UniProt P00591); assay: Fluorescence titration of lipase; format: binding; conditions: for n (number of binding sites) / binding affinity with lipase (in words): fluorescence titration; for n (number of binding sites): excitation 280 nm, Tris-HCl pH 8.0
T1 sequence (P00591 1-450): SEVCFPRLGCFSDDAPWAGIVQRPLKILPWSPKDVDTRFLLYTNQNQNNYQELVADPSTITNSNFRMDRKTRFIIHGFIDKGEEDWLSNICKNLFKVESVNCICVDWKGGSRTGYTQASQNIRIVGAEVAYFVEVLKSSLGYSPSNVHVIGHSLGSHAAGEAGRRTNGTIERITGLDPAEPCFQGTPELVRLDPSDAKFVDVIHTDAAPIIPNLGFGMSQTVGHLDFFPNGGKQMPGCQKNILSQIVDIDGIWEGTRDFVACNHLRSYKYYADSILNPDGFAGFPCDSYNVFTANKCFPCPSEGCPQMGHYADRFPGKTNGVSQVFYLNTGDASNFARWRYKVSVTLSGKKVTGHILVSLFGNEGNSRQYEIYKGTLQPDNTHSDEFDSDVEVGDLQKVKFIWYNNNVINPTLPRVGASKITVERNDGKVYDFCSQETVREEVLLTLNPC

pancreatic lipase = conditions: ref Kumar and Alagawadi, 2013; cited from earlier work
[2] = rats, cited from earlier work
[3] = target: T1, porcine pancreatic lipase; assay: Inhibitory activity on pancreatic lipase; conditions: IC50, pNPP substrate, Tris-HCl pH 8.0, 37 °C, means ± SD of triplicate
[4] = ref Zhi et al., 1999; cited from earlier work
[5] = oral administration, ref Zhou et al., 2021

| Structure (SMILES) | Kd [1] [µM] | n (number of binding sites) [1] | IC50 [3] [µM] | also measured |
| --- | --- | --- | --- | --- |
| O=c1cc(-c2ccc(O)c(O)c2)oc2cc(O)c([C@@H]3O[C@H](CO)[C@@H](O)[C@H](O)[C@H]3O)c(O)c12 [Isoorientin] | 4.66 | 1.278 |  |  |
| O=c1c(O)c(-c2ccccc2)oc2cc(O)cc(O)c12 [Galangin] | 13.7 | 1.097 | 574 ± 132 | inhibition on pancreatic lipase activity (pancreatic lipase): dose-dependent inhibition; anti-obesity effects ([2]; ref Kumar and Alagawadi, 2013): exhibited anti-obesity effects |
| COc1ccc(-c2coc3cc(O)ccc3c2=O)cc1 [Formononetin] | 83.2 | 0.926 | > 1860 |  |
| O=c1cc(-c2ccc(O)c(O)c2)oc2cc(O)cc(O)c12 [Luteolin] | 0.156 | 1.435 | 99 ± 11 |  |
| O=c1c(-c2ccc(O)cc2)coc2cc(O[C@@H]3O[C@H](CO)[C@@H](O)[C@H](O)[C@H]3O)ccc12 [Daidzin] | 141 | 0.877 | > 1150 |  |
| COc1ccc(-c2coc3cc(O[C@@H]4O[C@H](CO)[C@@H](O)[C@H](O)[C@H]4O)ccc3c2=O)cc1 [Ononin] | 10.9 | 1.086 | > 1160 |  |
| O=c1c(-c2ccc(O)cc2)coc2c([C@@H]3O[C@H](CO)[C@@H](O)[C@H](O)[C@H]3O)c(O)ccc12 [Puerarin] | 1.43 | 1.232 | 16800 ± 692 |  |
| O=C1c2c(O)cc(O)cc2OC(c2ccc(O)c(O)c2)C1O (stereo not shown) [Taxifolin] | 56.2 | 0.956 | 3870 ± 939 |  |
| C[C@@H]1O[C@@H](OC[C@H]2O[C@@H](Oc3c(-c4ccc(O)c(O)c4)oc4cc(O)cc(O)c4c3=O)[C@H](O)[C@@H](O)[C@@H]2O)[C@H](O)[C@H](O)[C@H]1O [Rutin] | 5.38 | 1.115 | 367 ± 182 |  |
| O=c1cc(-c2ccccc2)oc2cc(O)cc(O)c12 [Chrysin] | 16.3 | 0.964 | > 593 |  |
| C[C@@H]1O[C@@H](O[C@H]2C(=O)c3c(O)cc(O)cc3O[C@@H]2c2ccc(O)c(O)c2)[C@H](O)[C@H](O)[C@H]1O [Astilbin] | 151 | 0.850 | 7316 ± 66 |  |
| COc1ccc([C@@H]2CC(=O)c3c(O)cc(O)cc3O2)cc1O [Hesperetin] | 41.4 | 0.998 | 3030 ± 829 |  |
| Oc1cc(O)c2c(c1)O[C@H](c1ccc(O)c(O)c1)[C@H](O)C2 [Epicatechin] | 3160 | 0.734 | > 20700 | binding affinity with lipase (in words) [1]: very weak binding affinity |
| O=c1c(O)c(-c2ccc(O)c(O)c2)oc2cc(O)cc(O)c12 [Quercetin] |  | 1.419 |  | fat absorption in the gastrointestinal tract [2, 5]: significantly reduced fat absorption; fat excretion in feces [2, 5]: increased fat excretion in feces |
| O=c1c(O)c(-c2ccc(O)cc2)oc2cc(O)cc(O)c12 [Kaempferol] | 4.06 | 1.163 | > 983 |  |
| O=c1c(-c2ccc(O)cc2)coc2cc(O)ccc12 [Daidzein] | 11.6 | 1.101 | 852 ± 667 |  |
| O=C1c2c(O)cc(O)cc2O[C@H](c2cc(O)c(O)c(O)c2)[C@H]1O [Dihydromyricetin] | 105 | 0.911 | 7170 ± 418 |  |
| O=c1c(-c2ccc(O)cc2)coc2cc(O[C@@H]3O[C@H](CO)[C@@H](O)[C@H](O)[C@H]3O)cc(O)c12 [Genistin] | 10.8 | 1.086 | > 925 |  |
| O=c1cc(-c2ccccc2)oc2cc(O)c(O)c(O)c12 [Baicalein] | 0.671 | 1.270 | 156 ± 22 |  |
| Oc1cc(O)c2c(c1)O[C@H](c1cc(O)c(O)c(O)c1)[C@H](O)C2 [Epigallocatechin] | 5820 | 0.670 | > 49000 | binding affinity with lipase (in words) [1]: very weak binding affinity |
| CCCCCCCCCCC[C@@H](C[C@@H]1OC(=O)[C@H]1CCCCCC)OC(=O)[C@H](CC(C)C)NC=O [Orlistat] |  |  |  | absorption in circulatory blood [4]: poorly absorbed |
| O=C1C[C@@H](c2ccc(O)cc2)Oc2cc(O)cc(O)c21 [Naringenin] | 33.3 | 1.013 | 6032 ± 41 |  |
| O=c1cc(-c2ccc(O)cc2)oc2cc(O)cc(O)c12 [Apigenin] | 3.86 | 1.156 | 256 ± 54 |  |
| O=c1c(-c2ccc(O)cc2)coc2cc(O)cc(O)c12 [Genistein] | 4.94 | 1.129 | > 2960 |  |
